Laboratory results from patent US12220467B2, “Highly loaded metal oxide materials by self-assembly for extended biologically active molecule release in medical and dental applications” (MESOSIL INC., priority 2016, dated 2025).
Converted amounts (≈) assume the structure as drawn. Counter-ions that a name gives are not always drawn. Like-named read-outs stand apart in the source and are kept apart here.

Columns and labels:
S. aureus = settings: cited from earlier work
[1] = system: murine fibroblasts and test microorganisms (Escherichia coli and Staphylococcus aureus); settings: cited from earlier work
mammalian cell = settings: cited from earlier work
murine fibroblasts = settings: cited from earlier work
[2] = literature values; cited from earlier work
human keratinocyte = settings: cited from earlier work
[3] = system: murine fibroblasts and test microorganisms (Escherichia coli and Staphylococcus aureus)
Excerpt: The term “biocompatibility index” is defined by the active agent's effective biological activity and its cytotoxic effect on human or animal cells. […] The biocompatibility index will take into account both the results of the in vitro cytotoxicity, i.e., the concentration at which 50% of the murine fibroblasts are damaged, and the microbial effect, i.e., the concentration at which the baseline burden of the test microorganisms (e.g., Escherichia coli and Staphylococcus aureus) is reduced by at least 3 log 10 (99.9%). A biocompatibility index greater than 1 represent an antibacterial substance with an effective microbicidal activity combined with a relatively low cytotoxicity. […] A biocompatibility index less than 1 indicates an antimicrobial agent with a relatively high cytotoxicity in a defined medium.

E. coli = settings: cited from earlier work
S. mutans = experiment: Antimicrobial studies against S. mutans; assay type: cell-based
Excerpt: According to an embodiment, the amphiphilic biologically active agent may be a synthetic, natural or derived compound having properties for treating or preventing a disease or illness, including: pharmaceutical drugs, pharmaceutical conjugated drugs, pharmaceutical prodrugs, antimicrobial or antiseptic agents, antifungal agents, peptides, DNA or any combinations thereof, which when introduced into the body causes a desired biological response. According to another embodiment, the amphiphilic biologically active agent may be an active agent with a suitable biocompatibility index. Such biologically active agent may have a biocompatibility index greater than 1. According to another embodiment, the preferred amphiphilic biologically active agent may be an antibacterial agent. According to a further embodiment, the most preferred amphiphilic biologically active agent may be the antibacterial agent OCT. OCT is an amphiphilic antiseptic agent with a biocompatibility index of greater than 1. OCT has shown a broad range of efficacy against gram positive and negative bacteria and is used currently as a mouth rinse, wound cleansing agent, topical antiseptic, and for other applications. The CMC of OCT was determined to be 3.79 mM.

CCCCCCCCCCCCCCCC[N+](C)(C)C.[Br-] [CTAB, cetyltrimethylammonium bromide]
minimum inhibitory concentration (MIC) against S. aureus (S. aureus): 16 µg/mL | biocompatibility index [1]: less than 1 | concentration able to reduce mammalian cell viability (mammalian cell): less than 1 μM | concentration for 50% reduction in murine fibroblasts (murine fibroblasts): 2 µg/mL

CCCCCCCCCCCC(=O)N[C@@H](CCCN=C(N)N)C(=O)OCC [LAE, lauric arginate]
CMC [2]: 4.9 mM | concentration for 50% reduction of human keratinocyte growth (human keratinocyte): 63 µg/mL | biocompatibility index [3]: 5.33 | MIC against E. coli (E. coli): 11.8 µg/mL (≈ 30.7 µM)

CCCCCCCCN=c1ccn(CCCCCCCCCCn2ccc(=NCCCCCCCC)cc2)cc1 [OCT, octenidine dihydrochloride]
antimicrobial activity compared with CHX (S. mutans): compared favorably with CHX

benzalkonium chloride
biocompatibility index [1]: 0.79

polyhexamethylene biguanide [PHMB]
CMC [2]: 20 to 50 mM | biocompatibility index ([1]; reported in literature): 1.36
